Values after ≈ are worked out from the molar mass of the structure shown.
Legend:
[1] = Drug uptake in BALB/c mouse lung at 10mg/kg, po administered qd for 5 days; assay type: ADME, organism-based; conditions: read-out: Drug uptake
[2] = Tmax in BALB/c mouse at 10 mg/kg, po administered as single dose; assay type: ADME, organism-based; design: dose 10 mg/kg, route oral; conditions: in vivo
[3] = Tmax in BALB/c mouse at 10 mg/kg, po administered qd for 5 days; assay type: ADME, organism-based; design: dose 10 mg/kg, route oral; conditions: in vivo
[4] = test system: Blood; assay: Drug uptake in BALB/c mouse blood at 10 mg/kg, po administered qd for 5 days; assay type: ADME, organism-based; design: dose 10 mg/kg, route oral; conditions: in vivo, 120 h
[5] = test system: Blood; assay: Drug uptake in BALB/c mouse blood at 10 mg/kg, po administered as single dose; assay type: ADME, organism-based; design: dose 10 mg/kg, route oral; conditions: in vivo, BLD = below limit of detection
[6] = Metabolic stability in human microsomes assessed as compound remaining after 30 mins; assay type: ADME, Microsome; conditions: read-out: Stability
[7] = test system: Mycobacterium tuberculosis; assay: microbe, parasite or virus in culture; conditions: H37Rv, 264 h
Description: Antitubercular activity against Mycobacterium tuberculosis H37Rv in anaerobic conditions after 11 days by luminescnece-based low-oxygen recovery assay

[8] = Half life in mouse microsomes; assay type: ADME, Microsome
[9] = T>MIC in BALB/c mouse at 10 mg/kg, po administered qd for 5 days; assay type: functional
[10] = Inhibition of Mycobacterium tuberculosis wild type RNA polymerase by rolling circle transcription assay in the absence of sigmaA factor
[11] = Cmax in BALB/c mouse at 10 mg/kg, po administered qd for 5 days; assay type: ADME, organism-based; design: dose 10 mg/kg, route oral; conditions: in vivo
[12] = Selectivity index, ratio of cytotoxicity against human DPX2 cells to IC50 for Mycobacterium wild type RNA polymerase; assay type: toxicity, cell-based; conditions: read-out: Selectivity Index
[13] = Apparent plasma half life in BALB/c mouse at 10 mg/kg, po administered qd for 5 days; assay type: ADME, organism-based; design: dose 10 mg/kg, route oral; conditions: read-out: t1/2(app) (converted)
[14] = test system: Mycobacterium tuberculosis; assay: microbe, parasite or virus in culture; conditions: H37Rv, 168 h
Description: Antitubercular activity against Mycobacterium tuberculosis H37Rv in aerobic conditions after 7 days by microplate-based alamar blue assay

[15] = Cmax in BALB/c mouse at 10 mg/kg, po administered as single dose; assay type: ADME, organism-based; design: dose 10 mg/kg, route oral; conditions: in vivo
[16] = Inhibition of Mycobacterium tuberculosis wild type RNA polymerase by rolling circle transcription assay in the presence of sigmaA factor
[17] = Half life in human microsomes; assay type: ADME, Microsome
[18] = Cytotoxicity against human DPX2 cells expressing PXR assessed as decrease in cell viability at >6.25 uM after 24 hrs; assay type: ADME, cell-based; conditions: dpx2, 24 h
[19] = Metabolic stability in mouse microsomes assessed as compound remaining after 30 mins; assay type: ADME, Microsome; conditions: read-out: Stability
[20] = target: T1, PXR (NR1I2) (Homo sapiens, UniProt O75469); assay: Activation of PXR in human DPX2 cells at 6.25 uM after 24 hrs by luciferase reporter gene assay relative to control; assay type: cell-based; conditions: read-out: FC
T1 sequence (O75469 whole entry): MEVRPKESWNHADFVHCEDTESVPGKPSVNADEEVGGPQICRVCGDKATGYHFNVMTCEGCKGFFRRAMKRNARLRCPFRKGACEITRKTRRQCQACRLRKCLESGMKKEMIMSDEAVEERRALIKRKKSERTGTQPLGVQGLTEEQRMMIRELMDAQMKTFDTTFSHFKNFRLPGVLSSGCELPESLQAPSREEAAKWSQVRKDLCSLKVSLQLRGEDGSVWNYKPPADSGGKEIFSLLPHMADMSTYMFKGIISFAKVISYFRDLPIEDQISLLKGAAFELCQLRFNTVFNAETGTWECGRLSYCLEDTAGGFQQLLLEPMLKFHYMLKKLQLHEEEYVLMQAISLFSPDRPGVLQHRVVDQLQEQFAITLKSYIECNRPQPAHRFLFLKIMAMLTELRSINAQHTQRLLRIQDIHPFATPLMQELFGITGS

[21] = test system: Mus musculus; assay: Ratio of Cmax in BALB/c mouse at 10 mg/kg, po administered qd for 5 days to Cmax in BALB/c mouse at 10 mg/kg, po administered as single dose; assay type: ADME, organism-based; conditions: in vivo, 120 h
[22] = Cytotoxicity against human DPX2 cells expressing PXR assessed as decrease in cell viability at 25 uM after 24 hrs; assay type: ADME, cell-based; conditions: dpx2, 24 h
[23] = target: T2, Nuclear receptor subfamily 1 group I member 2 (Homo sapiens, UniProt O75469); assay: Activation of PXR in human DPX2 cells after 24 hrs by luciferase reporter gene assay; assay type: cell-based
T2 sequence (O75469 whole entry): T1 sequence (O75469 whole entry)

[24] = target: T1, PXR (NR1I2); assay: Activation of PXR in human DPX2 cells after 24 hrs by luciferase reporter gene assay relative to control; assay type: cell-based; conditions: read-out: FC
[25] = target: T1, PXR (NR1I2); assay: Activation of PXR in human DPX2 cells at 100 uM after 24 hrs by luciferase reporter gene assay relative to control; assay type: cell-based; conditions: read-out: FC
[26] = target: T2, Nuclear receptor subfamily 1 group I member 2; assay: Activation of PXR in human DPX2 cells at <100 uM after 24 hrs by luciferase reporter gene assay; assay type: cell-based; conditions: dpx2, 24 h
[27] = Half life in human; assay type: ADME, organism-based; conditions: in vivo
[28] = Cytotoxicity against human DPX2 cells expressing PXR assessed as decrease in cell viability at 100 uM after 24 hrs relative to control; assay type: ADME, cell-based; conditions: dpx2, 24 h

## CCN(CC)CCOc1cccc2oc3c4c(=O)c5c(O)c(C)c6c(c5c-3nc12)C(=O)[C@@](C)(O/C=C/[C@H](OC)[C@@H](C)[C@@H](OC(C)=O)[C@H](C)[C@H](O)[C@H](C)[C@@H](O)[C@@H](C)/C=C/C=C(/C)C(=O)N4)O6
[1]
  concentration at 120 h: 400 nM
[2]
  Tmax: 1 h
[3]
  Tmax: 2 h
[4]
  Drug uptake: Active
[5]
  Drug uptake: BLD
[6]
  remaining at 0.5 h: 68%
[7]
  MIC90: 0.37 µM (≈ 0.333 µg/mL)
[8]
  half-life: 141 min
[9]
  T>MIC: 4 h
[10]
  IC50: < 10 nM
[11]
  Cmax: 1740 nM
[12]
  selectivity ratio: 1000
[13]
  half-life: 60 min
[14]
  MIC90: 0.02 µM (≈ 0.018 µg/mL)
[15]
  Cmax: 18.5 nM
[16]
  IC50: < 10 nM
[17]
  half-life: 54 min
[18]
  Activity: Toxic
[19]
  remaining at 0.5 h: 86%
[20]
  fold induction at 24 h, 6.25 µM: 3
[21]
  Ratio: 100

## CO[C@H]1/C=C/O[C@@]2(C)Oc3c(C)c(O)c4c(=O)c(c5oc6cccc(OCCCCN7CCN(CCn8ccnc8)CC7)c6nc-5c4c3C2=O)NC(=O)/C(C)=C\C=C\[C@H](C)[C@H](O)[C@@H](C)[C@@H](O)[C@@H](C)[C@H](OC(C)=O)[C@@H]1C
[7]
  MIC90: 0.35 µM (≈ 0.362 µg/mL)
[10]
  IC50: < 10 nM
[12]
  selectivity ratio: 1000
[14]
  MIC90: 0.08 µM (≈ 0.0828 µg/mL)
[16]
  IC50: < 10 nM
[18]
  Activity: Toxic
[20]
  fold induction at 24 h, 6.25 µM: 3

## CO[C@H]1/C=C/O[C@@]2(C)Oc3c(C)c(O)c4c(=O)c(c5oc6cccc(OCCCCN7CCN(C(=O)Cn8ccnc8)CC7)c6nc-5c4c3C2=O)NC(=O)/C(C)=C\C=C\[C@H](C)[C@H](O)[C@@H](C)[C@@H](O)[C@@H](C)[C@H](OC(C)=O)[C@@H]1C
[22]
  Activity: Toxic
[7]
  MIC90: 0.4 µM (≈ 0.42 µg/mL)
[23]
  EC50: 5.5 µM
[24]
  fold induction at 24 h: 5.9
[10]
  IC50: < 10 nM
[14]
  MIC90: 0.07 µM (≈ 0.0734 µg/mL)
[16]
  IC50: < 10 nM

## NNC(=O)c1ccncc1 [ISONIAZID]
[7]
  MIC90: > 128 µM
[14]
  MIC90: 0.24 µM (≈ 0.0329 µg/mL)

## COc1c(N2C[C@@H]3CCCN[C@@H]3C2)c(F)cc2c(=O)c(C(=O)O)cn(C3CC3)c12 [MOXIFLOXACIN]
[14]
  MIC90: 0.46 µM (≈ 0.185 µg/mL)

## O=[N+]([O-])c1cn2c(n1)OC[C@@H](OCc1ccc(OC(F)(F)F)cc1)C2 [PRETOMANID]
[7]
  MIC90: 2.53 µM (≈ 0.909 µg/mL)

## CO[C@H]1/C=C/O[C@@]2(C)Oc3c(C)c(O)c4c(=O)c(c5oc6cc(N7CCN(CC(C)C)CC7)cc(O)c6nc-5c4c3C2=O)NC(=O)/C(C)=C\C=C\[C@H](C)[C@H](O)[C@@H](C)[C@@H](O)[C@@H](C)[C@H](OC(C)=O)[C@@H]1C [RIFALAZIL]
[6]
  remaining at 0.5 h: 73%
[7]
  MIC90: < 0.017 µM
[8]
  half-life: 53 min
[10]
  IC50: 11.5 nM
[25]
  fold induction at 24 h, 100 µM: 2
[26]
  Activity: Not Active
[14]
  MIC90: < 0.004 µM
[27]
  half-life: 2.5 days
[16]
  IC50: < 10 nM
[17]
  half-life: 65 min
[19]
  remaining at 0.5 h: 67%
[28]
  fold change (FC): 2

## CO[C@H]1/C=C/O[C@@]2(C)Oc3c(C)c(O)c4c(O)c(c(/C=N/N5CCN(C)CC5)c(O)c4c3C2=O)NC(=O)/C(C)=C\C=C\[C@H](C)[C@H](O)[C@@H](C)[C@@H](O)[C@@H](C)[C@H](OC(C)=O)[C@@H]1C [RIFAMPIN]
[7]
  MIC90: 0.46 µM (≈ 0.379 µg/mL)
[14]
  MIC90: 0.13 µM (≈ 0.107 µg/mL)

## CN[C@@H]1[C@H](O[C@H]2[C@H](O[C@H]3[C@H](O)[C@@H](O)[C@H](N=C(N)N)[C@@H](O)[C@@H]3N=C(N)N)O[C@@H](C)[C@]2(O)C=O)O[C@@H](CO)[C@H](O)[C@H]1O [STREPTOMYCIN]
[14]
  MIC90: 0.46 µM (≈ 0.268 µg/mL)
